Earlier results on 40 compounds are cited in patent publication US10925995B2, “Absorber and absorbent article using the same” (LIVEDO CORPORATION, priority 2012, dated 2021).

For the first data set the following is noted: in water at 25 degrees centigrade; no stage stated.
On to `O=C(O)CCCl` [3-chloropropionic acid], for which the “acid dissociation constant pKa” value is recorded as 3.92.
On to `NCCCC(=O)O` [4-aminobutyric acid], for which the “acid dissociation constant pKa” value is given as 4.03.
On to `O=C1O[C@H]([C@@H](O)CO)C(O)=C1O` [L-ascorbic acid], for which the “acid dissociation constant pKa” value is 4.03.
In the case of `O=C(O)CCCCC(=O)O` [adipic acid], the “acid dissociation constant pKa” value is given as 4.26.
On to `O=C(O)/C=C\c1ccccc1` [cinnamic acid (cis)], for which the “acid dissociation constant pKa” value was 3.88.
On to `COC(=O)CC(O)(CC(=O)O)C(=O)O` (stereo not shown) [citric acid monomethyl ester], for which the “acid dissociation constant pKa” value is on record as 4.35.
Turning to `C/C=C/C(=O)O` [crotonic acid], the “acid dissociation constant pKa” value was 4.69.
As to `O=C(O)C1CCCCC1` [cyclohexane carboxylic acid], the “acid dissociation constant pKa” value is given as 4.70.
For the compound `O=C(O)CCCC(=O)O` [glutaric acid], the “acid dissociation constant pKa” value is reported as 4.13.
`CCCCCCC(=O)O` [heptanoic acid]: the “acid dissociation constant pKa” value is reported as 4.66.
With `CCCCCC(=O)O` [hexanoic acid], the “acid dissociation constant pKa” value is 4.63.
Take `CC(=O)CCC(=O)O` [levulinic acid]: the “acid dissociation constant pKa” value is reported as 4.44.
In the case of `Nc1cccc(C(=O)O)c1` [m-aminobenzoic acid], the “acid dissociation constant pKa” value is reported as 3.12.
`Nc1cccc(S(=O)(=O)O)c1` [m-aniline sulfonic acid]: the “acid dissociation constant pKa” value is listed as 3.74.
For `O=C(O)c1cccc(Br)c1` [m-bromobenzoic acid], the “acid dissociation constant pKa” value is 3.81.
For `O=C(O)c1cccc(I)c1` [m-iodobenzoic acid], the “acid dissociation constant pKa” value is 3.85.
`O=C(O)c1cccc([N+](=O)[O-])c1` [m-nitrobenzoic acid]: the “acid dissociation constant pKa” value is given as 3.45.
Consider `O=C(O)C(O)c1ccccc1` (stereo not shown) [mandelic acid], for which the “acid dissociation constant pKa” value is reported as 3.19.
Turning to `O=C(O)CS` [mercaptoacetic acid], the “acid dissociation constant pKa” value is 3.43.
`COC(=O)c1ccncc1` [methyl isonicotinate]: the “acid dissociation constant pKa” value is listed as 3.26.
Turning to `COc1ccccc1C(=O)O` [o-anisic acid], the “acid dissociation constant pKa” value is reported as 4.09.
`Nc1ccc(S(=O)(=O)O)cc1` [p-aniline sulfonic acid]: the “acid dissociation constant pKa” value is reported as 3.23.
On to `O=C(O)c1ccc(Br)cc1` [p-bromobenzoic acid], for which the “acid dissociation constant pKa” value was 4.00.
On to `N#Cc1ccc(C(=O)O)cc1` [p-cyanobenzoic acid], for which the “acid dissociation constant pKa” value is listed as 3.55.
For `O=C(O)c1ccc(I)cc1` [p-iodobenzoic acid], the “acid dissociation constant pKa” value is listed as 4.00.
Regarding `O=C(O)c1ccc([N+](=O)[O-])cc1` [p-nitrobenzoic acid], the “acid dissociation constant pKa” value was 3.44.
Regarding `O=C(O)Cc1ccccc1` [phenylacetic acid], the “acid dissociation constant pKa” value was 4.10.
Turning to `O=C(O)CCCCCC(=O)O` [pimelic acid], the “acid dissociation constant pKa” value is listed as 4.31.
For the compound `CCCCC(=O)O` [valeric acid], the “acid dissociation constant pKa” value is on record as 4.64.
For the compound `C=CCC(=O)O` [vinyl acetic acid], the “acid dissociation constant pKa” value was 4.12.

The same data set, now with this note: in water at 25 degrees centigrade; second stage.
As to `O=C(O)[C@H](O)[C@@H](O)C(=O)O` [(R,R)-tartaric acid], the “acid dissociation constant pKa, second stage” value is listed as 4.44.
As to `O=C(O)CC(O)(CC(=O)O)C(=O)O` [citric acid], the “acid dissociation constant pKa, second stage” value is 4.35.
As for `O=C(O)C(O)C(O)C(=O)O` (stereo not drawn) [d-tartaric acid], the “acid dissociation constant pKa, second stage” value is listed as 3.95.
For `O=C(O)/C=C/C(=O)O` [fumaric acid], the “acid dissociation constant pKa, second stage” value is reported as 4.10.
Take `O=C(O)c1ccncc1` [isonicotinic acid]: the “acid dissociation constant pKa, second stage” value was 4.87.
For `Nc1ccccc1C(=O)O` [o-aminobenzoic acid], the “acid dissociation constant pKa, second stage” value is reported as 4.95.
With `O=C(O)c1ccccc1C(=O)O` [o-benzenedicarboxylic acid], the “acid dissociation constant pKa, second stage” value is listed as 4.93.
Turning to `Nc1ccc(C(=O)O)cc1` [p-aminobenzoic acid], the “acid dissociation constant pKa, second stage” value is given as 4.85.
As for `O=C(O)c1ccc2ccccc2n1` [quinaldic acid], the “acid dissociation constant pKa, second stage” value is listed as 4.75.

The same data set, now with this note: in water at 25 degrees centigrade; third stage.
With `O=C(O)c1cccc(C(=O)O)n1` [2,6-pyridinedicarboxylic acid], the “acid dissociation constant pKa, third stage” value is given as 4.68.
